Measured values from patent US12077778B2, “Methods of generating human inner ear sensory epithelia and sensory neurons” (INDIANA UNIVERSITY RESEARCH AND TECHNOLOGY CORPORATION, priority 2015, dated 2024).
Entries after “also recorded” stand apart in the source; their conditions may differ.

Experiments:
Format in all cases: cell-based, human
OEPD-induced aggregates = experiment: qPCR of PAX8/PAX2 expression after WNT and FGF signaling modulation, days 8-10; settings: one exploratory experiment
Method: Thus, we changed strategies by lengthening the initial culture phase to 12 days (with addition of fresh media on day 8) and testing the effect of transitioning the aggregates to Matrigel™ droplets.
Quantitative PCR. Analysis was performed as previously described on an ABI PRISM 7900HT Sequence Detection System (Applied Biosystems) or a Bio-Rad CFX96 quantitative PCR machine (Bio-Rad)^6. Data were normalized to L27 expression (internal control) and the fold change was calculated relative to Ct values from d0 WA25 aggregates using the ΔΔCt method. Unless stated otherwise, data represent at least 3 separate biological samples from separate experiments. All indicators of statistical significance refer to comparisons between a given condition and the control group. Refer to Table 4 for primer details.

WA25 cell aggregates = experiment: Non-neural ectoderm induction in WA25 hESC aggregates (qPCR, immunostaining)
Method: Following a 2-day incubation in E8 Medium, we transferred aggregates to CDM containing a low concentration of Matrigel and FGF-2 to stimulate epithelization and ectoderm differentiation on the aggregate surface. […] Remarkably, 100% of SB treated aggregates generated TFAP2^+ E-cadherin (ECAD)^+ epithelium with a surface ectoderm-like morphology by days 4-6 of differentiation—a time scale consistent with human embryogenesis (n=15 aggregates, 3 experiments; FIGS. 1B-1E; FIGS. 3A-3G). Over a period of 20 days, the epithelium expanded into a cyst composed of TFAP2^+ Keratin-5 (KRT5)^+ keratinocyte-like cells (FIGS. 6A-6E). From these findings, we concluded that treating WA25 cell aggregates with SB is sufficient to induce a non-neural epithelium.
(§1) Curious whether endogenous BMP activity is sufficient for non-neural specification, we performed a co-treatment with the BMP inhibitor, LDN-193189 (hereafter, LSB; dual LDN/SB treatment referred to as LSB). […] We reasoned that variation in endogenous BMP levels may underlie the different outcomes and the BMP concentration may need to be fine-tuned for each cell line. […] With either the SB or SBB approaches, the resulting epithelia closely resembled […] generated with mPSCs^5,6. In contrast to our mouse culture, non-neural conversion occurs without off-target induction of Brachyury (BRA)^+ mesendoderm cells (FIGS. 9A-9C). The following data were generated using either the SB (WA25) or SBB (mND2-0) approaches.
hPSC differentiation. To start differentiation, hPSC cells were dissociated with StemPro Accutase (Invitrogen) and distributed, 5,000 cells per well, onto 96-well V-bottom plates in E8 medium containing 20 μM Y-27632 (Stemgent) and Normocin. […] CDM contained a 50:50 mixture of F-12 Nutrient Mixture with GlutaMAX (Gibco) and Iscove's Modified Dulbecco's Medium with GlutaMAX (IMDM; Gibco) additionally supplemented with 0.5% Bovine Serum Albumin (BSA), 1× Chemically Defined Lipid Concentrate (Invitrogen), […] (Sigma), 15 μg ml^−1 Transferrin (Sigma), 450 μM Mono-Thioglycerol, and Normocin (see Table 1 for a detailed formulation). […] For some experiments, CDM containing a 18 μM CHIR99021 (3 μM final concentration; Stemgent) was added to the pre-existing 125 μl of media in each well—we determined that this treatment is optional for inner ear organoid production, but may improve induction of otic placode-like cells. […]
Quantitative PCR. Analysis was performed as previously described on an ABI PRISM 7900HT Sequence Detection System (Applied Biosystems) or a Bio-Rad CFX96 quantitative PCR machine (Bio-Rad)^6. Data were normalized to L27 expression (internal control) and the fold change was calculated relative to Ct values from d0 WA25 aggregates using the ΔΔCt method. […]

mND2-0 iPSCs = experiment: Non-neural ectoderm induction in mND2-0 iPSC aggregates
Source text: as §1
hPSC differentiation. To start differentiation, hPSC cells were dissociated with StemPro Accutase (Invitrogen) and distributed, 5,000 cells per well, onto 96-well V-bottom plates in E8 medium containing 20 μM Y-27632 (Stemgent) and Normocin. […] For some experiments, CDM containing a 18 μM CHIR99021 (3 μM final concentration; Stemgent) was added to the pre-existing 125 μl of media in each well—we determined that this treatment is optional for inner ear organoid production, but may improve induction of otic placode-like cells. […]

[1] = day 2, 10 μM SB, or 10 μM SB + 10 ng/ml BMP4 (SBB)

## CCN(CC)CCCCNc1ncc2cc(-c3cc(OC)cc(OC)c3)c(NC(=O)NC(C)(C)C)nc2n1 [PD-173074]
OEPD-induced aggregates
  PAX2 expression (qPCR) compared to DMSO controls: likely inhibits PAX2 expression

## Oc1nc(-c2ccc(C(F)(F)F)cc2)nc2c1CSCC2 [XAV939]
OEPD-induced aggregates
  PAX2 expression (qPCR) compared to DMSO controls: only had a modest positive or negative impact on PAX2 expression

## NC(=O)c1ccc(-c2nc(-c3ccc4c(c3)OCO4)c(-c3ccccn3)[nH]2)cc1 [SB, SB-431542]
WA25 cell aggregates; 10 μM SB, days 4-6 of differentiation, n=15 aggregates, 3 experiments
  aggregates that generated TFAP2+ E-cadherin (ECAD)+ epithelium with surface ectoderm-like morphology: 100%
WA25 cell aggregates; [1]
  extraembryonic marker CDX2 expression (qPCR): no corresponding CDX2 expression
  non-neural marker genes TFAP2 and DLX3 expression (qPCR): upregulated; also recorded: increase in TFAP2 and DLX3 expression
mND2-0 iPSCs; mND2-0 iPSCs, day 6, 10 μM SB alone or with 2.5 ng/ml BMP4
  cell types generated (marker immunostaining): generated PAX6^+ neuroectoderm and TFAP2^+ ECAD^− neural crest-like cells

B1: BMP4: recombinant human BMP4, agonist of BMP signaling (protein, UniProt P12644 293-408, looked up)
Bone morphogenetic protein 4: SPKHHSQRARKKNKNCRRHSLYVDFSDVGWNDWIVAPPGYQAFYCHGDCPFPLADHLNSTNHAIVQTLVNSVNSSIPKACCVPTELSAISMLYLDEYDKVVLKNYQEMVVEGCGCR
WA25 cell aggregates; day 2, BMP4 (B) treatment
  mesendoderm markers BRA and EOMES expression (qPCR): upregulated
mND2-0 iPSCs; mND2-0 iPSCs with SB, 1.25-40 ng/ml tested, preliminary experiment
  minimum BMP concentration that produced the morphological changes (translucent sphere): 2.5 ng/ml
